Laboratory results from US7132524B2, “Plant brassinolide responsive genes and use thereof” (National Agriculture and Bio-oriented Research Organization, priority 2002, dated 2006).
Entries after “also recorded” stand apart in the source; their conditions may differ.

B1: OsBLE1: OsBLE1 cDNA (SEQ ID NO: 1) inserted in antisense direction in binary vector pIG121-Hm under CaMV 35S promoter (nucleic acid, listed as Oryza sativa)
DNA: AATTCGGCACGAGCGGCGGCGAGAGGAGCGGCGGCGATGGGCGGCGGCGGGCACGGCGGCGGCACGACGTACAAGGGGTACACCATCCCCCACAACAAGCGCTGGCACACCGTCGCCGGCAAGGGCCTCTGCGCCGTCATGTGGTTTTGGGTTTTCTACAGGGCTAAGCAGGACGGTGCTGTTCTCTTGGGCATGCGTCATCCTTGGGATGGTCATGATGATCACTCACATGGTCATGGGCATGAGCATGAGGGATCATCATCAACATCGTCGTCTCACTAAATCAACTGCTTCTTGGCGGCTGAGGGAGACTCGCTGCTTTGGTTGTCGCGATGAAATCCTCGAAGATAATAAAGTTTCACACTATTAATTTTATTAAGATGGGTTCATGTTGTTGGCAACTGTTTAAGGCAAACTGGTTATGTATTTTGCTTTTGAGATAGCCTCCCTCGATGGAAAACCCATGTATGTTGTTGCTTATTAGGCTGTGGACATCCTTTTGGATGTAGAGGCTGGGTTTTTAATCCATTATCTAAAAAAATGTTGTTGCTTCTTCCGATCAAAAAAAAAAAAAAAAAAAAAAAAAAAAAAAAAAAAA
modifications: antisense orientation in binary vector under 35S promoter; cDNA

Assays:
OsBLE1 and OsBLE2 genes = test: Northern blotting analysis of OsBLE1 and OsBLE2 expression after plant hormone treatment; assay type: in vivo, Rice (Nipponbare); settings: for expression of OsBLE1 and OsBLE2 following hormone treatment: leaf sheath and base of leaf blades, FIG. 2B-2C
Protocol: Rice (Nipponbare) was grown at 25° C. and 75% humidity with a 12-hrs day and 12-hrs night under white fluorescent light (about 600 μmol·m^−2sec^−1). Commercially available, high quality brassinolide (BL), gibberellin (GA), and indole-3-acetic acid (IAA) were used for the present invention. The method of Chomczynski and Sacchi (Chomczynski P., Sacchi N., Ana. Biochem., 162: 156–159, 1987) was used to extract RNA for RNA blotting analysis. An mRNA purification kit oligotex-dT-30 (Takara), was used to prepare mRNA for micro-array analysis. After tissue samples were quickly frozen in liquid nitrogen, about 0.5 g of the frozen tissue was ground into powder in a mortar and pestle. Total RNA was prepared by the method of Chomczynski and Sacchi (Chomczynski P., Sacchi N., Anal. Biochem., 162: 156–159, 1987). Then, mRNA for microarray analysis was purified from the total RNA using oligotexdT kit (Takara). For Northern blot analysis, 20 μg of the total RNA were electrophoresed in a 1.2% agarose gel containing 6% formaldehyde and then transferred to a Hybond™-N^+ nylon membrane. In order to ensure equivalent amount of RNAs were electrophoresed for Northern blotting, the present inventors stained gels with ethidium bromide to compare rRNA quantity. Hybridization was carried out at 42° C. overnight using ULTRAhyb™ (Ambion), and the membrane was washed with 2×SSC and 0.1% SDS at 42° C. for 5 min, and then with 0.1×SSC and 0.1% SDS at 68° C. for 15 min. Nylon membrane was exposed to X-ray film (Kodak). The expression patterns of the 12 genes were analyzed by Northern blotting. The present inventors then found two genes whose expression occurs one to six hours after brassinolide treatment and was increased in the leaf sheath and the base of leaf blades by auxin and brassinolide treatment (FIGS. 2A–2C). The present inventors named these two genes OsBLE1 and OsBLE2.

[1] = system: 1265 rice genes (EST clones); test: cDNA microarray analysis of rice seedling leaf blade base after brassinolide treatment; assay type: in vivo, Rice (Nipponbare); settings: base of leaf blades of rice seedling, 1 μM brassinolide, 48 hours; depending on the concentration
Protocol: Rice (Nipponbare) was grown at 25° C. and 75% humidity with a 12-hrs day and 12-hrs night under white fluorescent light (about 600 μmol·m^−2sec^−1). Commercially available, high quality brassinolide (BL), gibberellin (GA), and indole-3-acetic acid (IAA) were used for the present invention. The method of Chomczynski and Sacchi (Chomczynski P., Sacchi N., Ana. Biochem., 162: 156–159, 1987) was used to extract RNA for RNA blotting analysis. An mRNA purification kit oligotex-dT-30 (Takara), was used to prepare mRNA for micro-array analysis. A cDNA microarray containing 1265 EST clones was used. RNA was isolated from the base of leaf blades treated with 1 μM brassinolide for 48 hours. Reverse transcription reaction was performed for two hours at 42° C. using 1 μg of mRNA in the presence of 50 μM Cy5 dCTP (Amersham Pharmacia), and then stopped. After heated at 94° C. for 3 min, the resulting mixture was treated with NaOH at 37° C. for 15 min to digest the RNA, and then cDNA was recovered. Fluorescently labeled cDNA probe was purified using a QIA quick PCR purification kit (Qiagen). […] Data were analyzed according to Array Vision (Imaging Research). Total RNA was extracted from the base of leaf blades of rice (Nipponbare) seedling treated with 1 μM brassinolide, and the RNA was analyzed using cDNA microarrays containing 1265 rice genes. […]

Nipponbare rice cultivar = test: Growth of rice transformed with antisense cDNA under CaMV 35S promoter; assay type: in vivo; settings: antisense direction in pIG121-Hm, Agrobacterium EHA101, FIGS. 5B-5C
Text: Two different cDNAs were inserted into an expression vector in the antisense direction. The resulting vector was then introduced into Agrobacterium (EHA101). The resulting Agrobacterium was used to transform Nipponbare rice cultivar by the ultrahigh-speed transformation method for monocotyledons (Japanese Patent No. 3141084).
Both of cDNAs of OsBLE1 and OsBLE2 were modified to have SalI restriction site at their 5′ end and to have XbaI restriction sites at their 3′ ends. The modified cDNAs were then digested with XbaI and SalI and inserted into a binary vector pIG121-Hm (Ohta S., Mita S., Hattori T., Nakamura K., Plant Cell Physiol., 31: 805–813, 1990) at XbaI (5′ end) and SalI (3′ end) sites (in the antisense direction) under the control of cauliflower mosaic virus 35S promoter. The recombinant binary vectors were introduced into Agrobacterium EHA101, and the resulting Agrobacterium was introduced into Nipponbare rice cultivar by ultrahigh-speed transformation method for monocotyledons. […] Therefore, the present inventors have succeeded in dwarfing a transformed plant in which expression of a gene that is induced by addition of a plant hormone, brassinolide, is regulated.

| Molecule | expression of OsBLE1 and OsBLE2 following hormone treatment (OsBLE1 and OsBLE2 genes) | expression level of the 12 different genes [1] | time after treatment at which expression of OsBLE1 and OsBLE2 occurs / is induced (OsBLE1 and OsBLE2 genes; FIG. 2A) | growth of stem and leaf of transformed rice compared to controls containing the vector alone (Nipponbare rice cultivar) |
| --- | --- | --- | --- | --- |
| C=C1C[C@]23C[C@@]1(O)CC[C@H]2[C@@]12C=C[C@H](O)[C@@](C)(C(=O)O1)[C@H]2[C@@H]3C(=O)O [GA3, gibberellin] | increased | – | – | – |
| O=C(O)Cc1c[nH]c2ccccc12 [IAA, indole-3-acetic acid] | increased | – | – | – |
| CC(C)[C@H](C)[C@@H](O)[C@H](O)[C@@H](C)[C@H]1CC[C@H]2[C@@H]3COC(=O)[C@H]4C[C@H](O)[C@H](O)C[C@]4(C)[C@H]3CC[C@]12C [brassinolide] | increased | markedly increased | two to six; also recorded: one to six | – |
| OsBLE2: OsBLE2 cDNA (SEQ ID NO: 3) inserted in antisense direction in binary vector pIG121-Hm under CaMV 35S promoter | – | – | – | suppressed growth of stem and leaf |
| B1 | – | – | – | suppressed growth of stem and leaf |
